Laboratory results as given in patent US6420110B1, “Methods and reagents for isolating biologically active peptides” (GPC Biotech, Inc., priority 1998, dated 2002).

System: bovine capillary endothelial (BCE) cells
Assay: Inhibition of bFGF stimulated BCE cell proliferation in Transwells (CyQUANT)
Assay type: cell-based
Conditions: 1 ng/ml bFGF, 72 hrs
Experimental: COS-7 cells were transfected with pAM9-myc, pAM9-RGD and pAM9-K1 plasmids, respectively, that direct the expression and secretion of the Myc epitope-6xHis, the RGD and the angiostatin first kringle domain peptides. The transfected COS-7 cells were co-incubated in Transwells with BCE cells whose proliferation was stimulated by 1 ng/ml bFGF. As controls, untransfected COS-7 cells and bFGF stimulated BCE cells were similarly co-incubated and synthetic Myc-6xHis and RGD peptides as well as purified K1 were added to the media at the indicated concentrations. The proliferation of the bFGF stimulated BCE cells were measured 72 hrs later using the fluorescent CyQUANT proliferation kit (Molecular Probes).

## CDCRGDCFC [RGD peptide, positive control]
Peptide secreted from transfected COS-7 cells co-incubated in Transwells
  inhibition of bFGF stimulated BCE cell proliferation: inhibited
Synthetic or purified peptide added to the media, untransfected COS-7 cells co-incubated
  inhibition of bFGF stimulated BCE cell proliferation: inhibited
